Results taken from PubChem BioAssay (NCI).
Values joined by “and” are separate entries in the source; they are usually repeats but may differ in a detail not shown here. Identical values can stand only once.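 Each compound was tested at five concentrations against cells in 96-well plates for 48 hours. GI50 = concentration required for 50% inhibition of growth. The concentration for full growth arrest is given as TGI.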

Columns and labels:
Assay in all cases: NCI anticancer screen, dose series, 48 h
786-0 renal = tested on: 786-0 renal
A549 NSCLC = tested on: A549 NSCLC
ACHN renal = tested on: ACHN renal
CAKI-1 renal = tested on: CAKI-1 renal
CCRF-CEM leukemia = tested on: CCRF-CEM leukemia
HS 578T breast = tested on: HS 578T breast
KM12 colon = tested on: KM12 colon
SN12C renal = tested on: SN12C renal
SW-620 colon = tested on: SW-620 colon
U251 CNS = tested on: U251 CNS

Structure (SMILES) | GI50 (786-0 renal) | TGI (786-0 renal) | GI50 (A549 NSCLC) | TGI (A549 NSCLC) | GI50 (ACHN renal) | TGI (ACHN renal) | GI50 (CAKI-1 renal) | TGI (CAKI-1 renal) | GI50 (CCRF-CEM leukemia) | TGI (CCRF-CEM leukemia) | GI50 (HS 578T breast) | TGI (HS 578T breast) | GI50 (KM12 colon) | TGI (KM12 colon) | GI50 (SN12C renal) | TGI (SN12C renal) | GI50 (SW-620 colon) | TGI (SW-620 colon) | GI50 (U251 CNS) | TGI (U251 CNS)
COc1cc(N2CCC(N3CCN(C)CC3)CC2)ccc1Nc1ncc(Cl)c(Nc2ccccc2S(=O)(=O)C(C)C)n1 | 1.12 µM | 2.44 µM | 0.402 µM | 2.03 µM | 0.76 µM | 2.61 µM | 0.65 µM | 6.51 µM | 0.424 µM | 5.86 µM | 1.35 µM | 5.07 µM | 0.352 µM | 3.48 µM | 0.613 µM | 14.2 µM | 0.337 µM | 2.52 µM | 1 µM | 2.4 µM
CC(C)(C)c1cc(-c2nc3c(F)c(F)c(F)c(F)c3[nH]2)cc(C(C)(C)C)c1O | > 100 µM | > 100 µM | > 100 µM | > 100 µM | > 100 µM | > 100 µM | > 100 µM | > 100 µM | > 100 µM | > 100 µM | > 100 µM | > 100 µM | > 100 µM | > 100 µM | > 100 µM | > 100 µM | > 100 µM | > 100 µM | > 100 µM | > 100 µM
Cc1ccc(C2=NN(c3ccc(S(N)(=O)=O)cc3)C(c3cn(-c4ccccc4)nc3-c3ccccc3)C2)cc1 (configuration not stated) | 4.69 µM | > 100 µM | 6.75 µM | > 100 µM | 9.51 µM | > 100 µM | 6.17 µM | > 100 µM | > 100 µM | > 100 µM | 18.3 µM | > 100 µM | 4.27 µM | > 100 µM | 2.23 µM | 5 µM | 9.82 µM | > 100 µM | 19.6 µM | > 100 µM
CC(=O)[O][Bi]([c]1ccccc1)[c]1ccccc1 | 2.96 µM | 9.6 µM | 25.5 µM | 86.7 µM | 11.8 µM | 24.4 µM | 11.1 µM | 26.2 µM | 2.27 µM | 5 µM | 24.9 µM | 71.9 µM | 15.8 µM | 30.1 µM | 10.9 µM | 23.6 µM | 2.27 µM | 5.45 µM | 2.6 µM | 10.9 µM
COc1cc2c3c(n(CCCN4CCCC(O)C4)c(=O)c2cc1OC)-c1cc2c(cc1C3=O)OCO2 (configuration not stated) | 0.0277 µM | 0.115 µM | 0.642 µM | 1.51 µM | < 0.005 µM | 0.32 µM | 0.00685 µM | 1.36 µM | 0.00738 µM | 0.278 µM | 0.874 µM | 2.11 µM | 0.333 µM | 1.49 µM | 0.162 µM | 0.964 µM | 0.047 µM | 7.61 µM | 0.00633 µM | 0.854 µM
CCN(CC)CC[n+]1cc2cc(OC)c(OC)cc2c2ccc3cc4c(cc3c21)OCO4 | 0.903 µM | 3.78 µM | 0.376 µM | 1.84 µM | 1.25 µM | 4.07 µM | 1.99 µM | 14.3 µM | 0.325 µM | 20.1 µM | 0.604 µM | 5.54 µM | 0.515 µM | 2.46 µM | 0.309 µM | 1.21 µM | 0.442 µM | 2.36 µM | 0.308 µM | 1.29 µM
O=C(O)c1ccccc1Nc1ccc2nnc(-c3ccncc3)n2n1 | 4.64 µM | 19.7 µM | 13.3 µM | 62 µM | 4.24 µM | 17.4 µM | 3.22 µM | 11.7 µM | 4.28 µM | > 100 µM | 18.3 µM | 53.9 µM | 7.34 µM | 23.9 µM | 3.56 µM | 17.1 µM | 6.48 µM | 36 µM | 13.3 µM | 28 µM
Cc1cc2nc(C(Cl)Cl)nc(-c3ccccc3)n2n1 | 52.9 µM | > 100 µM | 2.48 µM | 6.45 µM | 1.87 µM | 5.12 µM | 2.7 µM | 15.4 µM | 25.8 µM | > 100 µM | 2.65 µM | 14.5 µM | 1.78 µM | 4.86 µM | 24.7 µM | > 100 µM | 3.22 µM | 28 µM | 3.13 µM | 24.3 µM
Cc1ccc2c(c1)C=CC(C#N)N2C(=O)Oc1ccccc1 (configuration not stated) |  | > 100 µM |  | > 100 µM |  | 83.3 µM |  | > 100 µM |  | 40.1 µM |  | > 100 µM |  | 33.2 µM |  | > 100 µM |  | > 100 µM |  | 66.4 µM
Cn1c(=O)c2[nH]c(CCCCc3nc4c([nH]3)c(=O)n(C)c(=S)n4C)nc2n(C)c1=S |  | > 100 µM |  | > 100 µM |  | > 100 µM |  | > 100 µM |  | > 100 µM |  | > 100 µM |  | > 100 µM |  | > 100 µM |  | > 100 µM |  | > 100 µM
O=C(NCCCCCCNC(=O)OCc1ccc2c(Cl)cc(Cl)c(O)c2n1)OCc1ccc2c(Cl)cc(Cl)c(O)c2n1 | 1.28 µM | 2.67 µM | 1.55 µM | 3.62 µM | 0.353 µM | 1.32 µM | 0.412 µM | 1.69 µM | 0.311 µM |  | 1.46 µM | 5.68 µM | 1.34 µM | 2.95 µM | 0.957 µM | 2.25 µM | 0.303 µM | 0.984 µM | 1.44 µM | 2.92 µM
O=[N+]([O-])c1cc2c(c([N+](=O)[O-])c1)Nc1ccccc1O2 | 5.81 µM | 39.1 µM | 5.51 µM | 60.4 µM | 6.97 µM | 76.2 µM | 5.36 µM | 26.9 µM | 13.2 µM | > 100 µM | 7.22 µM | > 100 µM | 6.68 µM | > 100 µM | 6 µM | > 100 µM | 10.7 µM | > 100 µM | 3.32 µM | 22.6 µM
Nc1nc(-c2cccs2)cs1 |  | > 100 µM |  | > 100 µM |  | > 100 µM |  | > 100 µM |  | > 100 µM |  | > 100 µM |  | > 100 µM |  | > 100 µM |  | > 100 µM |  | > 100 µM
Oc1c(I)cc(I)cc1CN(Cc1ccccn1)Cc1ccccn1 | 0.952 µM | 12 µM | 0.906 µM | 13.4 µM | 0.502 µM | 6.98 µM | 0.499 µM | 12.2 µM | 0.385 µM | 30.8 µM | 2.06 µM | 16 µM | 0.774 µM | > 42.3 µM | 1.23 µM | 33.6 µM | 0.847 µM | 23.5 µM | 0.419 µM | 11.7 µM
CC#CC(=O)N1CC[C@@H](n2c(=O)n(-c3ccc(Oc4ccccc4)cc3)c3c(N)ncnc32)C1 | 21.5 µM | > 100 µM | 55 µM | > 100 µM | 21.4 µM | > 100 µM | 13.8 µM | > 100 µM | 26.2 µM | > 100 µM | 22.5 µM | > 100 µM | 32.9 µM | > 100 µM | 20.8 µM | > 100 µM | 47.6 µM | > 100 µM | 35.8 µM | > 100 µM
Nc1nc(-c2ccc(Cl)cc2)cc(-c2ccccc2)c1-c1nc2ccccc2o1 | 4.52 µM | 19.8 µM | 5.9 µM | > 100 µM | 8.8 µM | 23.3 µM | 12.2 µM | 28.6 µM | 4.2 µM | 33.6 µM | 12.7 µM | 40.9 µM | 2.65 µM | 8.17 µM | 3.05 µM | 9.29 µM | 13.4 µM | 31.1 µM | 4.49 µM | 18.7 µM
C=C(C)[C@@H]1CC[C@]2(C(N)=O)CC[C@]3(C)[C@H](CC[C@@H]4[C@@]5(C)C/C(=C/c6cccnc6)[C@H](O)C(C)(C)[C@@H]5CC[C@]43C)[C@@H]12 | 6.24 µM | > 100 µM | 3.37 µM | > 100 µM | 3.53 µM | > 100 µM | 2.15 µM | 28.4 µM | 3.86 µM | > 100 µM | 8.3 µM | > 100 µM | 3.82 µM | > 100 µM | 4.82 µM | > 100 µM | 4.38 µM | > 100 µM | 4.61 µM | > 100 µM
CN1CCN(CC(=O)N2c3cccc4cccc(c34)N(C(=O)CN3CCN(C)CC3)C2c2cn(-c3ccccc3)nc2-c2cccc([N+](=O)[O-])c2)CC1 | 1.76 µM | 3.21 µM | 3.21 µM | 13.2 µM | 2.22 µM | 5.33 µM | 1.83 µM | 4.1 µM | 1.69 µM | 4.45 µM | 1.95 µM | 5.71 µM | 1.85 µM | 3.43 µM | 1.99 µM | 4.28 µM | 1.91 µM | 4.37 µM | 1.9 µM | 4 µM
CCCCCC/C=C1\CCC(CN(C)C)C1=O (configuration not stated) |  | 3.99 µM |  | 36.9 µM |  | 22.2 µM |  | 9.51 µM |  | 7.21 µM |  | 40.3 µM |  | 6.68 µM |  | 8.74 µM |  | 6.49 µM |  | 9.47 µM
CCCCCCNCCCNc1c2ccccc2nc2cccc([N+](=O)[O-])c12 | 0.0239 µM | 0.0416 µM and 0.193 µM |  | 0.113 µM and 0.131 µM | 0.0151 µM | 0.0446 µM and 0.0858 µM |  | 0.271 µM | 0.0277 µM | 0.17 µM and 0.182 µM |  | 0.21 µM and 0.434 µM |  | 0.0352 µM and 0.0335 µM |  | 0.12 µM |  | 0.115 µM and 0.734 µM |  | 0.0966 µM and 0.116 µM
